Among the data in ChEMBL document CHEMBL1137940, “Discovery of thiophene-2-carboxylic acids as potent inhibitors of HCV NS5B polymerase and HCV subgenomic RNA replication. Part 2: tertiary amides” (Bioorg Med Chem Lett, 2004) are CC50 and IC50 values, retold here.

Test [1] has as its system Huh-7. The experiment in a line: Tested for cytotoxic effect to Huh-7 cells containing HCV RNA subgenomic replicons. Format: functional. The settings on record: Homo sapiens. Background: Replicon systems follow genome replication, usually without infectious particles.
Test [2] deals with Huh-7. Briefly: Tested for inhibition of replication of HCV RNA subgenomic replicons in Huh-7 cells by replicon assay. Format: functional, cell-based, Homo sapiens.
In test [3] the target is Genome polyprotein (Hepatitis C virus genotype 1a (isolate 1) (HCV), UniProt P26664). The experiment in a line: In vitro inhibition of Hepatitis C polymerase.
Sequence of Genome polyprotein (P26664 2421-3011 limits assumed): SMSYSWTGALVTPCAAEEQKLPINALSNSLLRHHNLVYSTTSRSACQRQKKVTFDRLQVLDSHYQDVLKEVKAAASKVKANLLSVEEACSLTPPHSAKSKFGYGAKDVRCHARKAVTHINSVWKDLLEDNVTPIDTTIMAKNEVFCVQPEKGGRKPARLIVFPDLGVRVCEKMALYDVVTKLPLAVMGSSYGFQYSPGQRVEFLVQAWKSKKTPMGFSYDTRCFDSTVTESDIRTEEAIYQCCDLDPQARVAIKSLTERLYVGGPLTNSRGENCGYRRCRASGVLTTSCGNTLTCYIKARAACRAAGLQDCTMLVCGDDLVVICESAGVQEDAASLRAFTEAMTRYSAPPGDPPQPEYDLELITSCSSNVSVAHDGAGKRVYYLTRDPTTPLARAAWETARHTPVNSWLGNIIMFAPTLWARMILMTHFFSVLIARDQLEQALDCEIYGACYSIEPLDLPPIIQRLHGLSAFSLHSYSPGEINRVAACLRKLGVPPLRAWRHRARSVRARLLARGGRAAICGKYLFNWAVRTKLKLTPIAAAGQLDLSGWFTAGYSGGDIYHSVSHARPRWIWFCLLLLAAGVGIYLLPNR
The subject of test [4] is Huh-7. Briefly: Tested for inhibition of replication of HCV RNA subgenomic replicons in Huh-7 cells by real time PCR. It is filed as functional, cell-based. The settings on record: Homo sapiens.

For the molecule `Cc1ccc(S(=O)(=O)Nc2cc(-c3ccccc3)sc2C(=O)O)c(C)c1`, in test [1], it took 57 µM to reach half-maximal cytotoxicity (CC50). In addition, the concentration for half-maximal inhibition (IC50) (in general, the point on the concentration scale where inhibition reaches its midpoint) in test [2] (Homo sapiens, Huh-7) was found to be 5 µM.

As for `CC(C)N(C(=O)C1CCCCC1)c1cc(-c2ccccc2)sc1C(=O)O`, the half-maximal inhibitory concentration (IC50) came to 9 µM in test [3] and 15 µM in test [2] (Homo sapiens, Huh-7). Moreover, the half-maximal cytotoxic concentration (CC50) – broadly, the concentration giving 50% cytotoxicity – in test [1] stood at 69 µM.

Regarding `CC1CCC(C(=O)N(c2cc(-c3ccccc3)sc2C(=O)O)C(C)C)CC1` (stereo in doubt; 17), the IC50 in test [3] was 24 µM; in test [2] (huh-7), over 50 µM.

Take `CC(C)N(C(=O)c1ccc(Cl)cc1Cl)c1cc(-c2ccccc2)sc1C(=O)O`: the IC50 is 1.2 µM in test [3] and 8.9 µM in test [2] (Homo sapiens, Huh-7). Half-maximal cytotoxicity in test [1] (CC50) was put at 62 µM.

The molecule `Cc1ccccc1C(=O)N(C)c1cc(-c2ccccc2)sc1C(=O)O` came in with an IC50 in test [3] of 21 µM.

`CN(C(=O)c1ccccc1)c1cc(-c2ccccc2)sc1C(=O)O` came in with a concentration for half-maximal inhibition (IC50) in test [3] of over 32 µM.

In the case of `CC1CCC(C(=O)N(c2cc(-c3ccccc3)sc2C(=O)O)C(C)C)CC1` (stereo in doubt; 16), the IC50 was determined as 0.3 µM in test [4], 1.5 µM in test [3] and 0.6 µM in test [2] (huh-7). Besides, the midpoint of cytotoxicity in test [1], the CC50, lay at 123 µM.

For the molecule `Cc1ccc(C(=O)N(C)c2cc(-c3ccccc3)sc2C(=O)O)cc1`, the IC50 came to 2 µM in test [3] and 22 µM in test [2] (Homo sapiens, Huh-7). In test [1], this molecule registered a CC50 of over 200 µM.

In test [3], `Cc1ccc(C(=O)N(C)c2cc(-c3ccccc3)sc2C(=O)O)cc1C` yielded an IC50 of over 50 µM.

Turning to `Cc1cccc(C(=O)N(C)c2cc(-c3ccccc3)sc2C(=O)O)c1`, the half-inhibitory concentration (IC50) in test [3] is over 50 µM; in test [2] (Homo sapiens, Huh-7) it was over 100 µM. This molecule registered a 50% cytotoxic concentration (CC50) in test [1] of over 200 µM.

On to `CN(C(=O)c1ccc(Cl)cc1)c1cc(-c2ccccc2)sc1C(=O)O`, for which the IC50 in test [3] is 1.2 µM; in test [2] (Homo sapiens, Huh-7) it was 19 µM. Moreover, in test [1], the half-maximal cytotoxic concentration (CC50) turned out to be 88 µM.

As to `Cc1ccc(S(=O)(=O)N(C)c2cc(-c3ccccc3)sc2C(=O)O)c(C)c1`, the IC50 in test [3] is 5 µM; in test [2] (Homo sapiens, Huh-7) it was 35 µM. It took 115 µM to reach half-maximal cytotoxicity in test [1] (CC50).

With `CN(C(=O)c1ccc(C(F)(F)F)cc1)c1cc(-c2ccccc2)sc1C(=O)O`, the IC50 in test [3] was 34 µM; in test [2] (Homo sapiens, Huh-7), over 50 µM.

In the case of `CCc1ccc(C(=O)N(C)c2cc(-c3ccccc3)sc2C(=O)O)cc1`, the IC50 in test [3] was over 50 µM; in test [2] (Homo sapiens, Huh-7), over 100 µM.

`Cc1ccc(C(=O)N(C)c2cc(-c3ccccc3)sc2C(=O)O)c(C)c1`: the IC50 in test [3] was 1.4 µM; in test [2] (Homo sapiens, Huh-7), 16 µM. The molecule also had a CC50 in test [1] of 160 µM.

As for `Cc1ccc(C(=O)N(c2cc(-c3ccccc3)sc2C(=O)O)C(C)C)cc1`, the IC50 in test [3] was found to be 3 µM; in test [2] (Homo sapiens, Huh-7) it was 5 µM. Moreover, in test [1], the CC50 is over 200 µM.

In the case of `CCN(C(=O)c1ccc(C)cc1)c1cc(-c2ccccc2)sc1C(=O)O`, the half-inhibitory concentration (IC50) worked out at 2 µM in test [3] and 12 µM in test [2] (Homo sapiens, Huh-7). For the same molecule, the cytotoxic concentration (CC50) in test [1] was 100 µM.

With `Cc1ccc(C(=O)Nc2cc(-c3ccccc3)sc2C(=O)O)cc1`, in test [1], the CC50 came out at 118 µM. The molecule further yielded an IC50 in test [2] (Homo sapiens, Huh-7) of over 100 µM.
